Measurements reported in publication PMC11148772, “Inhibition of protein translational machinery in triple-negative breast cancer as a promising therapeutic strategy” (Cell Reports Medicine, 2024).
Entries after “also recorded” stand apart in the source; their conditions may differ.

Columns and labels:
[1] = Maximum tolerated dose / acute oral toxicity; type: in vivo; set-up: key to Behavioral, Neurologic and Autonomic signs, Response, all listed signs: 0; no adverse effect; ±1 mild adverse effect; ±2, moderate adverse effect; ±3 severe adverse effect; details: for Body Weight, Mean / Toxicity (death/test) / Behavioral, Neurologic and Autonomic signs, Response, all listed signs: Female SD rats; for Behavioral, Neurologic and Autonomic signs, Response, all listed signs: observation time 1 hr, 3 animals
Protocol: Female Sprague-Dawley rats (Charles river laboratories, strain code: Crl:CD(SD) 001, 8–10 weeks old) were used by the eurofins lab services (Eurofins Discovery) to test the toxicity of SU056.
The acute oral toxicity of SU056 was evaluated by Eurofins lab services (Eurofins discovery). The oral toxicity study was performed in female rats and mice for multiple escalating doses (100 mg/kg, 200 mg/kg, 400 mg/kg). Rats and mice were monitored for their behavioral, neurological and autonomic signs after administration of SU056. The response was recorded as 0; no adverse effect, ±1 mild adverse effect, ±2, moderate adverse effect and ±3 severe adverse effect.

[2] = molecular target: T1, YB-1 and RPL11 interaction (Homo sapiens, UniProt P67809); test: Immunoprecipitation of YB-1; type: cell-based; details: MDA-MB-231 and MDA-MB-468, 1 μM
T1 construct: Immunoprecipitation of YB-1 from protein lysates of SU056-treated MDA-MB-231 and MDA-MB-468 cells using YB-1 antibody; endogenous in cells; host or cells: MDA-MB-231; MDA-MB-468
Protocol: MDA-MB-231 and MDA-MB-468 cells with and without SU056 (1 μM) treatment for 6 and 12 h respectively and were lysed using M-PER lysis solution (Thermo Scientific, #78503), supplemented with Halt protease and phosphatase inhibitor cocktail (Thermo Scientific, #78440). Precleaned 300 μg protein lysate was incubated overnight at 4°C with 3 μg YB-1 (Abcam, #ab76149) on nutating rocker. The antibody was pulled down using 20 μL Protein A/G magnetic beads (Thermo scientific #88802). After three washings, beads were resuspended in 2X SDS sample buffer followed by heating at 90°C–100°C for 5 min. Samples were resolved and probed with indicated antibodies as described in immunoblotting assay.

MDA-MB-231 cells = test: Polysome profiling; type: cell-based, human; details: 1 μM, 12 h
Protocol: 1 x 10^6 MDA-MB-231 cells were plated in 100 mm culture plate and allowed to be attached for 24 h. Next day, cells were treated with vehicle or SU056 (1 μM) for 12 h in regular culture medium. Next, cells were incubated with cycloheximide (10 μg/mL) for 5 min at 37°C. Cells were then washed twice in 1x PBS with 10 μg/mL cycloheximide and collected by trypsinization and snap freeze in liquid nitrogen. Cell pellet was lysated in 250 μL polysome lysis buffer (5 mM Tris-HCl [pH 7.4], 1.5 mM KCl, 2.5 mM MgCl2, 0.1 mg/mL cycloheximide, 100 U/mL RNasin, 1× EDTA-free Complete protease inhibitor cocktail, 2 mM DTT, 0.5% Triton X-100, 0.5% deoxycholate). Lysate were quantified taking absorbance at 260 nm using Nanodrop and loaded on a linear 15%–50% sucrose gradient. The gradients were ultracentrifuged SW41Ti rotor (Beckman) for 1 h and 30 min at 180,000 g at 4°C in Beckman Optima LE-80K Ultracentrifuge. The gradients were fractionated in 1 mL volume fractions with continuous monitoring absorbance at 254 nm using an ISCO UA-6 UV detector at Immagina Biotechnology, Pergine, Italy.

[3] = tested on: TNBC cells (MDA-MB-231, MDA-MB-468, SUM159); test: Immunoblot assay of cell lysates; type: cell-based, human; details: MDA-MB-231 and MDA-MB-468, 1 and 2 μM

## O=C1OCC2=C1C(c1cccc(F)c1)c1cc3c(cc1N2CCO)OCO3 (centres unmarked) [SU056, 9-(3-fluorophenyl)-5-(2-hydroxyethyl)-6,9-dihydro-[1,3]dioxolo[4,5-g]furo[3,4-b]quinolin-8(5H)-one]
[1]; 100 mg/kg, 0 hr
  Body Weight, Mean: 212.7 gm
[1]; 100 mg/kg, 15 min
  Toxicity (death/test): 0/3
[1]; 100 mg/kg, 1 hr
  Toxicity (death/test): 0/3
[1]; 100 mg/kg, 24 hr
  Body Weight, Mean: 216.7 gm
[1]; 100 mg/kg, 24 hrs
  Toxicity (death/test): 0/3
[1]; 100 mg/kg, 48 hr
  Body Weight, Mean: 219.0 gm
[1]; 100 mg/kg, 48 hrs
  Toxicity (death/test): 0/3
[1]; 100 mg/kg, 72 hr
  Body Weight, Mean: 229.7 gm
[1]; 100 mg/kg, 72 hrs
  Toxicity (death/test): 0/3
[1]; 100 mg/kg
  Behavioral, Neurologic and Autonomic signs, Response, all listed signs: 0
[1]; 200 mg/kg, 0 hr
  Body Weight, Mean: 204.3 gm
[1]; 200 mg/kg, 15 min
  Toxicity (death/test): 0/3
[1]; 200 mg/kg, 1 hr
  Toxicity (death/test): 0/3
[1]; 200 mg/kg, 24 hr
  Body Weight, Mean: 208.0 gm
[1]; 200 mg/kg, 24 hrs
  Toxicity (death/test): 0/3
[1]; 200 mg/kg, 48 hr
  Body Weight, Mean: 211.0 gm
[1]; 200 mg/kg, 48 hrs
  Toxicity (death/test): 0/3
[1]; 200 mg/kg, 72 hr
  Body Weight, Mean: 215.0 gm
[1]; 200 mg/kg, 72 hrs
  Toxicity (death/test): 0/3
[1]; 200 mg/kg
  Behavioral, Neurologic and Autonomic signs, Response, all listed signs: 0
[1]; 400 mg/kg, 0 hr
  Body Weight, Mean: 204.0 gm
[1]; 400 mg/kg, 15 min
  Toxicity (death/test): 0/3
[1]; 400 mg/kg, 1 hr
  Toxicity (death/test): 0/3
[1]; 400 mg/kg, 24 hr
  Body Weight, Mean: 200.0 gm
[1]; 400 mg/kg, 24 hrs
  Toxicity (death/test): 0/3
[1]; 400 mg/kg, 48 hr
  Body Weight, Mean: 209.7 gm
[1]; 400 mg/kg, 48 hrs
  Toxicity (death/test): 0/3
[1]; 400 mg/kg, 72 hr
  Body Weight, Mean: 216.7 gm
[1]; 400 mg/kg, 72 hrs
  Toxicity (death/test): 0/3
[1]; 400 mg/kg
  Behavioral, Neurologic and Autonomic signs, Response, all listed signs: 0
[1]; rats, 100, 200, and 400 mg/kg oral gavage, 72 h
  behavioral, neurological, and anatomical signs of toxicity and morbidity: not affected; also recorded: no observable changes
[2]
  YB-1 and RPL11 interaction: inhibits
MDA-MB-231 cells
  translational efficiency compared to control cells: reduced translational efficiency
[3]
  BCL-2 expression: inhibited
  Bax expression: induced
